Experimental data from patent US20010056085A1, “Methods of using vesicant drug formulations” (priority 1996, published 2001).
“Also recorded” adds a separate entry of the source. Read-outs that look alike come from different tables or passages of the source.

What was measured:
[1] = Effect of UVA irradiation on the absorbance spectrum of DOX (350-600 nm; KDOX at 480 nm); assay type: physicochemical; conditions: for photoenhancing effect on riboflavin-mediated UVA destruction of DOX (absorbance at 480 nm): 100 μM compound, 0.5 μM riboflavin in PBS without Ca2+ and Mg2+, 0 to 20 minutes UVA
P388 cells = assay: In vitro cell culture assay: growth inhibitory effect of UVA-irradiated DOX solutions; assay type: cell-based, murine
Protocol: Cell culture was carried out as previously described (Ramu et al. [1984] Cancer Res., 44:144). Briefly, P388 murine leukemia cells (i.e., P388D1 available from the ATCC; […] An inoculum of cells was transferred to fresh medium once every 4 days to maintain exponential growth. […] Drug solutions (0.2 ml/well) in 24 well culture clusters without the lid were irradiated in a laminar flow hood with 3 Blacklight Blue 40 W lamps (Vilber Lourmat, Marne la Vallee, France).

[2] = Half-life of ADR destruction by UVA light in the presence of test compounds (decrease in absorbance at 480 nm); assay type: physicochemical; conditions: for Half-Life of ADR Destruction, 100 μM Test Compound: 100 μM test compound alone
[3] = tested on: P388 or P388/ADR cell lines; assay: Effect of catalase on the growth inhibitory effect of DOX; assay type: cell-based, murine; conditions: 30 U/ml catalase
[4] = tested on: P388 cells and P388/ADR cells; assay: Catalase protection of cells from UVA irradiation; assay type: cell-based, murine; conditions: 0.01 to 100 U/ml catalase in PBS or RPMI 1640
[5] = UVA light, 100 μM test compound with 0.5 μM riboflavin

Molecule	Half-Life of ADR Destruction, 100 μM Test Compound and 0.5 μM Riboflavin [2, 5]	Half-Life of ADR Destruction, 100 μM Test Compound ([2]; UVA light)	other results
N[C@@H](Cc1ccc(O)cc1)C(=O)O [4-Hydroxy Phenylalanine (Tyrosine), 4-Hydroxy Phenylalanine]	–	–	photoenhancing effect on riboflavin-mediated UVA destruction of DOX (absorbance at 480 nm) ([1]; 20 μM DOX): enhanced; also recorded: greatest photenhancing effect; effect on the absorbance spectrum of DOX under UVA without riboflavin ([1]; 100 μM tyrosine, 20 μM DOX in PBS pH 7.2): essentially no impact on the absorbance spectrum of DOX
COc1cccc2c1C(=O)c1c(O)c3c(c(O)c1C2=O)C[C@@](O)(C(=O)CO)C[C@@H]3O[C@H]1C[C@H](N)[C@H](O)[C@H](C)O1.Cl [DOX, Doxorubicin HCl, reference compound]	–	–	first order rate constant of the decrease in DOX absorbance (KDOX) ([1]; 20 μM DOX in RPMI medium 1640 without phenol red, 50 mM HEPES pH 7.2, UVA): 0.000417 s⁻¹; UVA irradiation required to destroy the DOX absorbance spectrum ([1]; 20 μM DOX, 2 μM riboflavin and 5 nM DABCO (FIG. 12)): 20 min; UVA irradiation required to eliminate the DOX absorbance spectrum ([1]; 20 μM DOX, 20 μM riboflavin, 5 mM DABCO in PBS (FIG. 13B)): less than 2 minutes; time in which the DOX absorbance spectrum disappeared ([1]; 20 μM DOX, 20 μM riboflavin, 5 mM DABCO, PBS without Ca2+ and Mg2+ (FIG. 13C)): less than 1 minute
O=C(O)CN(CCN(CC(=O)O)CC(=O)O)CC(=O)O [EDTA, ethylenediaminetetraacetic acid]	–	–	photoenhancing effect on riboflavin-mediated UVA destruction of DOX (absorbance at 480 nm) ([1]; 20 μM DOX): enhanced
Cc1cc2nc3c(=O)[nH]c(=O)nc-3n(C[C@H](O)[C@H](O)[C@H](O)COP(=O)(O)OP(=O)(O)OC[C@H]3O[C@@H](n4cnc5c(N)ncnc54)[C@H](O)[C@@H]3O)c2cc1C [FAD, flavin adenine dinucleotide]	–	–	effectiveness in mediating the UVA inactivation of DOX compared with riboflavin ([1]; in the presence or absence of DABCO): not as effective as riboflavin; raise of concentration needed to obtain an effect comparable to riboflavin or FMN (P388 cells; UVA effect on DOX): 5 fold
Cc1cc2nc3c(=O)[nH]c(=O)nc-3n(C[C@H](O)[C@H](O)[C@H](O)COP(=O)(O)O)c2cc1C [FMN, flavin mononucleotide]	–	–	effectiveness relative to FAD in mediating UVA obliteration of the DOX growth inhibitory effect (P388 cells; 0.3 μM DOX in PBS, 8 min UVA): 5 fold
O=S(=O)(O)CCN1CCN(CCO)CC1 [HEPES, N-2-hydroxyethylpiperazine-N′-2-ethanesulfonic acid]	–	–	effect on riboflavin-mediated photoinactivation of DOX ([1]; 5 mM HEPES, 20 μM DOX, riboflavin in PBS): accelerate the riboflavin-mediated photoinactivation of DOX
N[C@@H](Cc1c[nH]cn1)C(=O)O [Histidine]	55.2 ± 7.1 min	–	photoenhancing effect on riboflavin-mediated UVA destruction of DOX (absorbance at 480 nm) ([1]; 20 μM DOX): enhanced
CSCC[C@H](N)C(=O)O [Methionine]	–	–	photoenhancing effect on riboflavin-mediated UVA destruction of DOX (absorbance at 480 nm) ([1]; 20 μM DOX): enhanced
N[C@@H](Cc1ccccc1)C(=O)O [Phenylalanine]	75.3 min	–	photoenhancing effect on riboflavin-mediated UVA destruction of DOX (absorbance at 480 nm) ([1]; 20 μM DOX): did not enhance
O=C(O)c1ccc[nH]1 [Pyrrole-2-carboxylic acid]	23.2 min	–	–
c1cc[nH]c1 [Pyrrole]	–	–	Half-Life of ADR Destruction, 100 μM Test Compound and 0.5 μM Riboflavin [2]: 11.6 min
C1CCNC1 [Pyrrolidine]	50.2 min	–	–
c1ccc2sccc2c1 [Thianaphthalene]	50.2 min	–	–
O=C(O)Cc1ccsc1 [Thiophene-3-acetic acid]	33.5 min	43.0 min	–
OCCc1ccsc1 [Thiophene-3-ethanol]	50.2 min	–	–
O=C(O)C(C(=O)O)c1ccsc1 [Thiophene-3-malonic acid]	43.0 min	–	–
CC(C(=O)O)c1ccc(C(=O)c2ccccc2)s1 (stereo not shown) [Tiaprofenic Acid, 2-Benzoyl-5-(x-methyl)-thiopheneacetic acid, reference compound]	3.24 min	3.20 min	–
COC(=O)[C@@H](N)Cc1ccc(O)cc1 [Tyrosine Methyl Ester]	43.0 min	–	–

Molecule	Half-Life of ADR Destruction, 100 μM Test Compound and 0.5 μM Riboflavin [2, 5]	Half-Life of ADR Destruction, 100 μM Test Compound ([2]; UVA light)	other results
O=c1cc[nH]c(=O)[nH]1 [Uracil]	50.2 min	–	–
O=c1[nH]c(=O)c2[nH]c(=O)[nH]c2[nH]1 [Uric acid]	21.5 min	–	–
O=c1[nH]c(=O)c2[nH]cnc2[nH]1 [Xanthine]	16.7 min	50.2 min	–
O=c1c2ccccc2oc2ccccc12 [Xanthrone]	6.84 min	5.47 min	–
Cc1cc(CC(=O)O)n(C)c1C(=O)c1ccc(Cl)cc1 [Zomepirac, 5-(4-Chlorobenzoyl)-1,4-dimethyl-pyrrole-2-acetic acid, reference compound]	20.1 min	42.0 min	Half-Life of ADR Destruction, 100 μM Test Compound ([2]; UVA light, listed as 5-(4-Chlorobenzoyl)-1,4-dimethyl-pyrrole-2-acetic acid (Zomepirac)): 43.0 min
O=C1O[C@H]([C@@H](O)CO)C(O)=C1O [ascorbate, ascorbic acid]	–	–	effect on the UVA-induced decrease of DOX absorbance ([1]; 0.16 mM ascorbate, 20 μM DOX in RPMI medium 1640): this decrease was smaller; effect on the UVA-induced decrease of DOX absorbance ([1]; 1.6 mM ascorbate, 20 μM DOX in RPMI medium 1640, 20 minutes of irradiation): no changes in the absorbance spectrum of DOX
Nc1ccc(C(=O)NCC(=O)O)cc1 [p-Amino hippuric acid]	11.1 min	50.2 min	–
O=C(O)/C=C/c1c[nH]c2ccccc12 [trans-3-Indoleacrylic acid]	6.84 min	–	–
O=C(O)/C=C/c1ccccc1 [trans-Cinnamic Acid]	–	43.0 min	–
NC(Cc1c[nH]c2ccccc12)C(=O)O (stereo not drawn) [α-Amino-Indole-3-propionic acid]	–	–	photoenhancing effect on riboflavin-mediated UVA destruction of DOX (absorbance at 480 nm) ([1]; 20 μM DOX): enhanced; effect on destruction of DOX in a riboflavin formulation by UVA irradiation ([1]; 100 μM tryptophan, 20 μM DOX, 0.5 μM riboflavin in PBS): enhanced
CC(O)c1ccc2ccccc2c1 (stereo not drawn) [α-Methyl-2-naphthalenemethanol]	33.5 min	43.0 min	–
CC(C(=O)O)c1ccccc1 (stereo not drawn) [α-Methyl-Phenylacetic Acid]	50.2 min	–	–
O=C(O)CCC(=O)c1cccc2ccccc12 [γ-Oxo-1-napthalenebutyric acid]	8.60 min	10.0 min	–
O=C(O)CCC(=O)c1ccc2ccccc2c1 [γ-Oxo-2-naphthalenebutyric acid]	8.18 min	8.36 min	–
Coumaryl Glucose	33.5 min	43.0 min	–
Dimethyl-2,3-indolecarboxylic acid	12.0 min	–	–
catalase	–	–	interference with the growth inhibitory effect of DOX [3]: does not interfere with the growth inhibitory effect of DOX; protection of cells from damage (inhibition of growth) by protracted UVA irradiation [4]: protected the cells from damage; effect on the rate of destruction of DOX by UVA irradiation ([1]; 150 units/ml catalase, 20 μM DOX in RPMI medium 1640): did not affect the rate of destruction of DOX
superoxide dismutase	–	–	effect on DOX inactivation by riboflavin or riboflavin-tyrosine and UVA ([1]; 300 U/ml SOD, 20 μM DOX in PBS): accelerates the rate at which DOX is inactivated
